# “Also recorded” adds a separate entry of the source.
# Key:
# mTOR = mTOR (Homo sapiens, UniProt P42345); assay: mTOR kinase assay (LanthaScreen); type: biochemical; conditions: for inhibitory activity against mTOR: Figure S1C
# Description: (§1) The kinase activity of PI3Kα, PI3Kβ, PI3Kδ and PI3Kγ, mutant PI3Kα (H1047R and E542K) mammalian target of rapamycin (mTOR) and DNA-PK was measured as described previously. The protein kinase assays depicted in Figure S1 in Additional file 1 and Table S2 in Additional file 2 were performed at ProQinase, GmbH [18].
# (§2) Supplementary file 13058_2014_482_MOESM1_ESM.jpeg: Additional file 1: Figure S1.: Comparative analysis of ETP-45658 and PI-103. (A) Chemical structure of ETP-45658 and PI-103. (B) Physiochemical properties of ETP-45658 and PI-103, including molecular polar surface area (PSA), partition coefficient (LogP), ACD clogD and solubility at two different pH values including Lipinsky’s Rule of Five (RoF) analysis. (C) Inhibitory activity against PI3K and mTOR. The kinase activity of PI3K was measured by using the commercial PI3-kinase HTRF™ assay mTOR activity by LanthaScreen™. (D) ETP-45658 and PI-103 screen against a panel of 24 kinases. The value shown indicates kinase inhibition (percentage +/− standard deviation) at 10 μM. (E) Migration of MDA-MB231 cells in a two compartment Boyden chamber for 72 hours in the presence of DMSO, ETP-45658 or PI-103 (N = 3). (JPEG 662 KB)
# [1] = test system: MCF-7 breast cancer cells; assay: Quantitative real time PCR (qRT-PCR) of selected genes; type: cell-based, human
# Description: Total RNA was extracted by using Tri-reagent (Sigma-Aldrich). Real-time PCR was performed on a CFX-96 PCR machine (BioRad) using the SsoFastSYBR™ green master mix (BioRad) and following the manufacturer’s guidelines. Data was analysed as described in [29] using the 2^-ΔΔCT methodology.
# Figure 4 Genes regulated by FOXO transcription factor and validation of key differentially regulated genes. […] Gene expression in MCF-7 breast cancer cells treated at six and twelve hours with (B) 10 nM ETP-45658 or (C) 10 nM PI-103. In each graph, error bars indicate +/− standard deviation with each gene and condition evaluated in triplicate from N = 3 independent experiments. For each analysis P values are shown (<0.05 is considered significant).
# Our genome-wide array and in vitro studies have elucidated that the predominant pathway activated following exposure to ETP-45658 (as well as following PI-103 treatment) was FOXO-mediated cell cycle arrest. […] To strengthen our findings further, we validated our genome-wide array results by quantitative real-time PCR (qRT-PCR). Based on our gene expression profiling data, we selected 11 differentially regulated key genes. […] In our last group, we selected the cyclin-dependent kinase inhibitor 1A (p21), which is regulated by both FOXO and p53, BCL2 binding component 3 (PUMA) and BCL2-associated X (BAX) that are regulated by p53. MCF-7 breast cancer cells were treated with ETP-45658 and six or twelve hours post treatment the total RNA was extracted. We evaluated the expression profile of each gene (normalised to GAPDH using the 2^-ΔΔCT method described in our Materials and methods section) (Figure 4B). […] This response was conserved between the MCF-7 breast cancer cell line (as we would predict based on our array studies) as well as the U2OS osteosarcoma cell line (data not shown).
# MDA-MB231 cells = assay: Boyden chamber matrigel invasion assay; type: cell-based, human; conditions: 72 hours; for capacity of MDA-MB231 cells to migrate through the matrigel: Figure S1E; for cell viability in invasion assay: MDA-MB231
# Description: Cell-invasive capacity was determined using two-compartment Boyden chamber matrigel invasion assay (BD BioCoat™ Matrigel™ Invasion Chambers, BD Biosciences 354480, BD Biosciences, San Jose, CA, USA). MDA-MB231 cells were allowed to invade for 72 hours at 37°C. All of the inserts and the liquid in each well of the companion plate were removed. 10% serum RPMI medium with 5 μM calcein was added to each and incubated for 1 hour (in darkness). Fluorescence was measured with a luminometer (Envision, PerkinElmer, Inc, Waltham, MA, USA) at 485/535 nm and the results were analyzed in Activity Base (IDBS, Guildford, UK).
# as §2
# [2] = design: method as in PMID 17575152; conditions: cited from earlier work
# [3] = test system: PC3, MCF7, MV4.11, T47D, HCT-116 and NCIH46 cells; assay: cells; type: cell-based; conditions: Homo sapiens; range over all tested cell lines; MTT 72 hours; read-out: EC50 value for the inhibition of proliferation, inhibitory range
# Description: Cells were seeded in 96-well microtitre plates. Compounds (in DMSO) were added to each well (at a final concentration of 10 μM). The medium was removed from the cells and replaced with 0.2 ml of medium containing either compound for 72 hours and then processed for MTT assay (Promega Corp, Madison, WI, USA) N = 6.
# We determined the EC50 value for the inhibition of proliferation in each of the following cell lines, PC3, MCF7, MV4.11, T47D, HCT-116 and NCIH46 cells.
# PI3K = assay: Kinase assay of PI3Kα, PI3Kβ, PI3Kδ, PI3Kγ and mutant PI3Kα (H1047R and E542K), PI3-kinase HTRF assay; type: biochemical; conditions: Figure S1C
# Description: as §1, §2
# total p53 = assay: Immunoblot of total p53
# Description: Sub-confluent cells were incubated under the conditions indicated in each figure and washed twice with phosphate-buffered saline (PBS) prior to lysis. RIPA lysis buffer was added (50 mM TrisHCl, 150 mM NaCl, 1% NP-40, 2 mM Na3VO4, 100 mM NaF, 20 mM Na4P2O7 and 1x protease inhibitor cocktail (Roche Molecular Biochemicals, Indianapolis, IN, USA). The membranes were incubated overnight for total AKT, phospho-serine-473-AKT, total p53 (DO1) (Santa Cruz Biotechnology, Dallas, TX, USA), phospho-threonine 32-FOXO3a (Merck Millipore, Darmstadt, Germany) and α-tubulin (Sigma-Aldrich). Secondary antibodies used were anti-mouse, goat or rabbit immunoglobulin G (IgG)-horseradish peroxidase (HRP) (Santa Cruz Biotechnology) as appropriate. Visualisation of bands was achieved using ChemiDoc imaging system (BioRad Laboratories Inc, Hercules, CA, USA) after membrane treatment with Ecl + (Amersham, Little Chalfont, UK).
# [4] = test system: phosphorylated serine 473 AKT; assay: Immunoblot of AKT Ser473 phosphorylation in MCF-7 or U2OS cells; type: cell-based, human
# Description: Figure 1 Cellular response to ETP-45658. […] Seventy-two hours post treatment, MTT assays were conducted. (B) Dose- and time-dependent analysis of Ser473 phosphorylation of AKT phosphorylation by 100nM ETP-45658 or PI-103 treatment. MCF-7 or U2OS cells were treated with the indicated concentrations (μM) of ETP-45658 (or PI-103) for four hours, then total protein was extracted and immunoblotted. For nuclear FOXO analysis, nuclear protein fractions were collected four hours post ETP-45658 (or PI-103) treatment. Nuclear FOXO3a levels were measure by immunoblotting. Nuclear fractions were confirmed by probing for lamin A/C. (C) FACS profile of MCF-7 or U2OS following 100 nM ETP-45658 treatment (20,000 events scored, N = 5). (D) Heat map for the top 100 differentially expressed genes based on hierarchical clustering using Euclidean distance metric. Red and green indicate genes that induced or repressed respectively by ETP-45658 or PI-103. Black indicates no change (N = 4). […] Numbers indicate number of genes that are exclusive to that particular category.
# [5] = MCF-7 and U2OS, as early as 30 minutes post treatment
# [6] = osteosarcoma cells (U2OS), by three hours post treatment
Structure (SMILES),inhibitory activity against mTOR (mTOR),NISCH expression (array and qRT-PCR) [1],qRT-PCR CCND1 transcription ([1]; 10 nM),capacity of MDA-MB231 cells to migrate through the matrigel (MDA-MB231 cells),cell viability in invasion assay (MDA-MB231 cells),aqueous solubility [2],EC50 [3] [nM],inhibitory activity against PI3K (PI3K),accumulation of total p53 (total p53),"phosphorylated serine 473 AKT [4, 5]","phosphorylated serine 473 AKT [4, 6]",potency against mTOR relative to PI-103 (mTOR; compared to reference compound PI-103),qRT-PCR induction of p53-dependent genes [1],"qRT-PCR expression of CCNG2, Cited2 and BRCA1 ([1]; 10 nM, six or twelve hours)","qRT-PCR TRAIL, FASLG or BCL2L11 transcription ([1]; six hours post treatment)","qRT-PCR TRAIL, FASLG or BCL2L11 transcription ([1]; twelve hours post treatment)"
Oc1cccc(-c2nc(N3CCOCC3)c3oc4ncccc4c3n2)c1 [PI-103],significantly less potent,downregulated,significantly reduced,inhibited,without significantly affecting cell viability,limited aqueous solubility,49 to 1760,slightly more effective,neither ETP-45658 (nor PI-103) triggered an accumulation,significant decrease,unable to detect,–,–,–,–,–
Cn1ncc2c(N3CCOCC3)nc(-c3cccc(O)c3)nc21 [ETP-45658],inhibited,significantly upregulated,significantly reduced,inhibited,without significantly affecting cell viability,–,–,potently inhibited,little to no p53 accumulation; also recorded: neither ETP-45658 (nor PI-103) triggered an accumulation,significant decrease,unable to detect,almost three times more potent,no significant induction,highly significant induction,no significant change,slight increase (less than two-fold)

# Source: PMC4303209, “A novel phosphatidylinositol 3-kinase (PI3K) inhibitor directs a potent FOXO-dependent, p53-independent cell cycle arrest phenotype characterized by the differential induction of a subset of FOXO-regulated genes” (Breast Cancer Research : BCR, 2014)
